Reference: patent US20230190779A1, “Agent for Improving Symptoms of Menopause” (Kao Corporation, priority 2020, published 2023)

Biological target: T1, human TRPV4 (Homo sapiens, UniProt Q9HBA0)
T1 construct: expressed in transfected cells; host or cells: HeLa cells (human cervical cancer-derived, ATCC), transient transfection
Assay: Suppression of TRPV4 activity: intracellular calcium ion influx in human TRPV4 expression HeLa cells stimulated with GSK1016790a
Assay type: cell-based
Details: GSK + solvent = 100%, n = 3, Mean ± SE
Description: Using a primer set consisting of oligonucleotides represented by the base sequences described below which was synthesized with reference to the published human TRPV4 gene sequence using cDNA obtained by reverse transcribing the total RNA extracted from human duodenum-derived cells (Hutu-80 cells, purchased from American Type Culture Collection) as a template, the polymerase chain reaction (PCR) was carried out under the following conditions.
The obtained PCR product was purified using a High Pure PCR Product Purification Kit (manufactured by Roche). Using the purified PCR product and pcDNA3.1 Directional TOPO Expression Kit (manufactured by Invitrogen), a human TRPV4 gene expression vector was produced.
A human cervical cancer-derived cell line (HeLa cells, purchased from American Type Culture Collection) was cultured using a DMEM/F12 medium containing 10% fetal bovine serum (manufactured by Invitrogen). HeLa cells were seeded in a 10 cm cell culture dish at 2×10^5 cells/dish. After culturing for 2 days, the cells were transfected with the human TRPV4 gene expression vector (7.7 lag) produced in the above (1) using TransIT-HeLaMONSTER Transfection Kit (manufactured by Mirus) and cultured for 1 day.
The cells were detached using Detachin (manufactured. by Genlantis Inc.), seeded in a DMEM/F12 medium containing 10% fetal bovine serum on a 96 well Optical bottom plate (manufactured by Nunc A/S) at a cell density of 2.0×10^4 cells/90 μL/well, and further cultured for 1 day.
Measurement of the intracellular calcium ion influx activity was carried out using Calcium Kit II-fluo 4 (trade name, DOJTNDO). 90 μL/well of a loading buffer containing Fluo4-AM was added to the human TRPV4 expression cells produced in the above (2), and incubated at 37° C. for 1 hour. Thereafter, the fluorescence intensity (excitation wavelength: 488 nm, fluorescence wavelength: 524 nm) was measured at 37° C. every two seconds using a fluorescence plate reader (FDSS/μCFLL Functional Drug Screening System C13299, manufactured by Hamamatsu Photonics K. K.). After 30 seconds from the start of the measurement, each of GSK1016790a (manufactured by Sigma) which is the TRPV4 agonist, and the cassis extract, or D3R, C3R, D3G, or C3G prepared in the above Production Example as the sample was diluted with a dilution buffer of the measurement kit, 20 μL/well of a mixed solution thereof (mixed immediately before addition) was added, and the change of fluorescence intensity was measured every two seconds until 300 seconds. […]
The TRPV4 activity of the sample was calculated by the following equation assuming that the calcium ion influx rate by the treatment of GSK1016790a which is the TRPV4 agonist was 100%. […]

T1 sequence (Q9HBA0 whole entry): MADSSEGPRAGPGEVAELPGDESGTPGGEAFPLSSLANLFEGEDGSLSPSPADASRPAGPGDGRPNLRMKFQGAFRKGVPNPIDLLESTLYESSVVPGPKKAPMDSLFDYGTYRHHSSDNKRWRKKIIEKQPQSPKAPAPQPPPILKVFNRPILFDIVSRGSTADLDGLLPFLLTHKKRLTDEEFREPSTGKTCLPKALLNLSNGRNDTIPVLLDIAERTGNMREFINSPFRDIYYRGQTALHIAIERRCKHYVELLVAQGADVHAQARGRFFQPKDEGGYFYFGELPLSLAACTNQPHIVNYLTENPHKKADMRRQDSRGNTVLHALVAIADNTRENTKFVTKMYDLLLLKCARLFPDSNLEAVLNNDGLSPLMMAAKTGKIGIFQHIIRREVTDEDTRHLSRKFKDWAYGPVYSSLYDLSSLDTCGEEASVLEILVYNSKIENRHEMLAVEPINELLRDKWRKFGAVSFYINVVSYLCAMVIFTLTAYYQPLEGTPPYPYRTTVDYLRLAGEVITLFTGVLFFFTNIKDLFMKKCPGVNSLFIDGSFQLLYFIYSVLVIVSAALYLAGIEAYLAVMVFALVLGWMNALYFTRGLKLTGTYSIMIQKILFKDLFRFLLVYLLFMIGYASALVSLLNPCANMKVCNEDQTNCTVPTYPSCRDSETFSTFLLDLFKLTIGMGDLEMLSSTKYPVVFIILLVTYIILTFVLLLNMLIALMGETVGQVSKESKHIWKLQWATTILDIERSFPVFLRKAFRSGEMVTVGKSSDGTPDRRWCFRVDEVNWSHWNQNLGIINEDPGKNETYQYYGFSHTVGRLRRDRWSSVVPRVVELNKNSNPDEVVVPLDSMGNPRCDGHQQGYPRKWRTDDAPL

Row | Intracellular Ca^2+ increase rate (%) (sample 0.05 μg/mL + GSK 10 nM) | Intracellular Ca^2+ increase rate (%) (sample 0.5 μg/mL + GSK 10 nM) | Compound | Intracellular Ca^2+ increase rate (%) (sample 0.14 μg/mL + GSK 10 nM) | Intracellular Ca^2+ increase rate (%) (sample 1.4 μg/mL + GSK 10 nM)
1 | 94.4 ± 3.1 | 101.5 ± 4.1 | OC[C@H]1O[C@@H](Oc2cc3c(O)cc(O)cc3[o+]c2-c2ccc(O)c(O)c2)[C@H](O)[C@@H](O)[C@@H]1O [C3G, cyanidin-3-glucoside, reference compound] |  | 
2 |  |  | OC[C@H]1O[C@@H](Oc2cc3c(O)cc(O)cc3[o+]c2-c2cc(O)c(O)c(O)c2)[C@H](O)[C@@H](O)[C@@H]1O [D3G, delphinidin-3-glucoside, reference compound] | 101.4 ± 2.7 | 100.4 ± 3.2
